From US9174994B2, “Enhanced treatment regimens using mTor inhibitors” (INTELLIKINE LLC, priority 2011, dated 2015)

Experiment: Phase I clinical trial: treatment-emergent adverse events (patients, n (%)), dose limiting toxicity, MTD
Assay type: in vivo
Protocol: Safety, maximum tolerated dose (MTD), pharmacokinetics (PK) and preliminary antitumor activity were evaluated.
Pharmacodynamic (PD) endpoints were evaluated in surrogate (peripheral blood cells [PBCs], skin) and tumor tissues for the phosphorylation of TORC1-dependent markers (4EBP1/S6), and TORC2-dependent markers (AKT/PRAS40).

CC(C)n1nc(-c2ccc3oc(N)nc3c2)c2c(N)ncnc21 [compound A]
Oral discomfort (7 mg/week (N = 3)): 0 (0%)
Patients Reporting at Least One Related TEAE (7 mg/week (N = 3)): 3
Pruritus (7 mg/week (N = 3)): 0 (0%)
RASH (7 mg/week (N = 3)): 0 (0%)
Rash (7 mg/week (N = 3)): 0 (0%)
Vomiting (7 mg/week (N = 3)): 2 (67%)
WEAKNESS (7 mg/week (N = 3)): 0 (0%)
Alanine aminotransferase increased (9 mg/3 W, QDx3d QW (N = 5)): 0 (0%)
Asthenia (9 mg/3 W, QDx3d QW (N = 5)): 1 (20%)
Catheter site inflammation (9 mg/3 W, QDx3d QW (N = 5)): 0 (0%)
Catheter site pain (9 mg/3 W, QDx3d QW (N = 5)): 0 (0%)
Decreased appetite (9 mg/3 W, QDx3d QW (N = 5)): 0 (0%)
Diarrhoea (9 mg/3 W, QDx3d QW (N = 5)): 1 (20%)
Dry skin (9 mg/3 W, QDx3d QW (N = 5)): 1 (20%)
Dysgeusia (9 mg/3 W, QDx3d QW (N = 5)): 0 (0%)
Dyspnoea (9 mg/3 W, QDx3d QW (N = 5)): 1 (20%)
Fatigue (9 mg/3 W, QDx3d QW (N = 5)): 0 (0%)
Headache (9 mg/3 W, QDx3d QW (N = 5)): 0 (0%)
Hyperbilirubinaemia (9 mg/3 W, QDx3d QW (N = 5)): 0 (0%)
Hypercholesterolaemia (9 mg/3 W, QDx3d QW (N = 5)): 1 (20%)
Hyperglycaemia (9 mg/3 W, QDx3d QW (N = 5)): 1 (20%)
Hypertransaminasaemia (9 mg/3 W, QDx3d QW (N = 5)): 1 (20%)
Hypertriglyceridaemia (9 mg/3 W, QDx3d QW (N = 5)): 1 (20%)
Hypomagnesaemia (9 mg/3 W, QDx3d QW (N = 5)): 1 (20%)
Hypotension (9 mg/3 W, QDx3d QW (N = 5)): 1 (20%)
Low fever (9 mg/3 W, QDx3d QW (N = 5)): 0 (0%)
Lymphopenia (9 mg/3 W, QDx3d QW (N = 5)): 1 (20%)
Mucosal inflammation (9 mg/3 W, QDx3d QW (N = 5)): 2 (40%)
Nausea (9 mg/3 W, QDx3d QW (N = 5)): 2 (40%)
Palmar-plantar erythrodysaesthesia syndrome (9 mg/3 W, QDx3d QW (N = 5)): 1 (20%)
Patients Reporting at Least One Related TEAE (9 mg/3 W, QDx3d QW (N = 5)): 4 (80%)
Platelet count decreased (9 mg/3 W, QDx3d QW (N = 5)): 0 (0%)
Pruritus (9 mg/3 W, QDx3d QW (N = 5)): 2 (40%)
Pyrexia (9 mg/3 W, QDx3d QW (N = 5)): 0 (0%)
Rash (9 mg/3 W, QDx3d QW (N = 5)): 3 (60%)
Rash macular (9 mg/3 W, QDx3d QW (N = 5)): 0 (0%)
Urinary tract infection (9 mg/3 W, QDx3d QW (N = 5)): 1 (20%)
Vomiting (9 mg/3 W, QDx3d QW (N = 5)): 2 (40%)
Asthenia (9 mg/3 W, QDx3d QW (N = 5), 2nd Asthenia line): 0 (0%)
Diarrhoea (10 mg/5 W, QDx5d QW (N = 3)): 0 (0%)
Patients Reporting at Least One Related TEAE (10 mg/5 W, QDx5d QW (N = 3)): 1 (33%)
Rash (10 mg/5 W, QDx5d QW (N = 3)): 0 (0%)
Urine tract infection (10 mg/5 W, QDx5d QW (N = 3)): 1 (33%)
Vomiting (10 mg/5 W, QDx5d QW (N = 3)): 1 (33%)
Nausea (10 mg/5 W, QDx5d QW (N = 3), 1st Nausea line): 1 (33%)
Nausea (10 mg/5 W, QDx5d QW (N = 3), 2nd Nausea line): 0 (0%)
ASTHENIA (10 mg/week (N = 3)): 0 (0%)
ATHENIA (10 mg/week (N = 3)): 0 (0%)
Alanine aminotransferase increased (10 mg/week (N = 3)): 0 (0%)
Aspartate aminotransferase increased (10 mg/week (N = 3)): 1 (33%)
Asthenia (10 mg/week (N = 3)): 0 (0%)
Blood creatinine increased (10 mg/week (N = 3)): 0 (0%)
Blood triglycerides increased (10 mg/week (N = 3)): 0 (0%)
DIARRHEA (10 mg/week (N = 3)): 0 (0%)
Decreased appetite (10 mg/week (N = 3)): 0 (0%)
Diarrhoea (10 mg/week (N = 3)): 0 (0%)
Dysgeusia (10 mg/week (N = 3)): 0 (0%)
Dyspepsia (10 mg/week (N = 3)): 0 (0%)
HYPERGLYCEMIA (10 mg/week (N = 3)): 0 (0%)
Hyperglycaemia (10 mg/week (N = 3)): 1 (33%)
Lymphopenia (10 mg/week (N = 3)): 0 (0%)
Malaise (10 mg/week (N = 3)): 0 (0%)
Mucosal inflammation (10 mg/week (N = 3)): 0(0%)
Muscle spasms (10 mg/week (N = 3)): 0 (0%)
Nausea (10 mg/week (N = 3)): 2 (67%)
Oral discomfort (10 mg/week (N = 3)): 1 (33%)
Patients Reporting at Least One Related TEAE (10 mg/week (N = 3)): 2 (67%)
Pruritus (10 mg/week (N = 3)): 0 (0%)
RASH (10 mg/week (N = 3)): 0 (0%)
Rash (10 mg/week (N = 3)): 0 (0%)
Vomiting (10 mg/week (N = 3)): 1 (33%)
WEAKNESS (10 mg/week (N = 3)): 0 (0%)
Alanine aminotransferase increased (12 mg/3 W, QDx3d QW (N = 3)): 0 (0%)
Asthenia (12 mg/3 W, QDx3d QW (N = 3)): 1 (33%)
Catheter site inflammation (12 mg/3 W, QDx3d QW (N = 3)): 1 (33%)
Catheter site pain (12 mg/3 W, QDx3d QW (N = 3)): 1 (33%)
Decreased appetite (12 mg/3 W, QDx3d QW (N = 3)): 1 (33%)
Diarrhoea (12 mg/3 W, QDx3d QW (N = 3)): 0 (0%)
Dry skin (12 mg/3 W, QDx3d QW (N = 3)): 0 (0%)
Dysgeusia (12 mg/3 W, QDx3d QW (N = 3)): 1 (33%)
Dyspnoea (12 mg/3 W, QDx3d QW (N = 3)): 0 (0%)
Fatigue (12 mg/3 W, QDx3d QW (N = 3)): 0 (0%)
Headache (12 mg/3 W, QDx3d QW (N = 3)): 0 (0%)
Hyperbilirubinaemia (12 mg/3 W, QDx3d QW (N = 3)): 0 (0%)
Hypercholesterolaemia (12 mg/3 W, QDx3d QW (N = 3)): 0 (0%)
Hyperglycaemia (12 mg/3 W, QDx3d QW (N = 3)): 2 (67%)
Hypertransaminasaemia (12 mg/3 W, QDx3d QW (N = 3)): 0 (0%)
Hypertriglyceridaemia (12 mg/3 W, QDx3d QW (N = 3)): 0 (0%)
Hypomagnesaemia (12 mg/3 W, QDx3d QW (N = 3)): 0 (0%)
Hypotension (12 mg/3 W, QDx3d QW (N = 3)): 0 (0%)
Low fever (12 mg/3 W, QDx3d QW (N = 3)): 0 (0%)
Lymphopenia (12 mg/3 W, QDx3d QW (N = 3)): 0 (0%)
Mucosal inflammation (12 mg/3 W, QDx3d QW (N = 3)): 1 (33%)
Nausea (12 mg/3 W, QDx3d QW (N = 3)): 2 (67%)
Palmar-plantar erythrodysaesthesia syndrome (12 mg/3 W, QDx3d QW (N = 3)): 0 (0%)
Patients Reporting at Least One Related TEAE (12 mg/3 W, QDx3d QW (N = 3)): 2 (67%)
Platelet count decreased (12 mg/3 W, QDx3d QW (N = 3)): 0 (0%)
Pruritus (12 mg/3 W, QDx3d QW (N = 3)): 1 (33%)
Pyrexia (12 mg/3 W, QDx3d QW (N = 3)): 0 (0%)
Rash (12 mg/3 W, QDx3d QW (N = 3)): 0 (0%)
Rash macular (12 mg/3 W, QDx3d QW (N = 3)): 1 (33%)
Urinary tract infection (12 mg/3 W, QDx3d QW (N = 3)): 0 (0%)
Vomiting (12 mg/3 W, QDx3d QW (N = 3)): 0 (0%)
Asthenia (12 mg/3 W, QDx3d QW (N = 3), 2nd Asthenia line): 0 (0%)
ASTHENIA (15 mg/week (N = 3)): 0 (0%)
ATHENIA (15 mg/week (N = 3)): 0 (0%)
Alanine aminotransferase increased (15 mg/week (N = 3)): 0 (0%)
Aspartate aminotransferase increased (15 mg/week (N = 3)): 0 (0%)
